{"source": "patent US20130005812A1", "about": "“METHOD FOR ALLEVIATING ALLERGIC ASTHMA AND ALLERGIC RESPONSE BY USING BITTER MELON COMPOSITION” (NATIONAL TAIWAN UNIVERSITY, priority 2011, published 2013)", "assay_type_in_all_cases": "in vivo, BALB/c mice", "key": {"[1]": {"assay": "Growth and feed intake of OVA-sensitized mice", "experimental": "(§1) Inbred female BALB/c mice (4 weeks old) were purchased from the Laboratory Animal Center, National Taiwan University and housed in a room with constant temperature of 23±2° C. The animal room was kept on a 12-h light and 12-h dark cycle. The mice were housed and kept on free diet and water to acclimatize before feeding the experimental diet. Diet ingestions are recorded every 3˜4 days, and mice body weight were recorded every week. When mice were in 8 week old, the mice were sensitized and challenged to induce allergic reaction at week 8, 10 and 12 by an intraperitonal injection (i.p.) of antigen containing ovalbumin antigen and adjuvant (Imject® Alum). Blood samples were collected on two days before injection and on two weeks after last injection for analysis of OVA-specific antibodies. Mice were divided in five groups based on OVA-specific IgE antibody and body weight, namely OVA-oil group (the control group), OVA-BGP group (feed containing 5% of freeze dried bitter melon powder), OVA-CLN group (tube feeding containing 35 mg CLN), OVA-Pred (prednisolone, the positive control group), and PBS-oil (the non-sensitized group), respectively. Mice diet was based on AIN-76 formulation (feed composition referred to J. Nutri. 107: 1340-1384, 1977). Administration of steroid prednisolone by tube feeding started 4 days before AHR induction and last to the day sacrificed. After 4 days of feeding, mice were challenged with 5% aerosol of OVA solution, while the PBS-oil group was administered with aerosol PBS. Change of mice airway resistance was measured after 13 days of feeding, and mice were sacrificed on day 16.\nBALB/c mice were sensitized every other week for three times. Two weeks before the last sensitization mice were divided into five groups according to OVA-specific IgE and body weight, then different experimental diet were provided for 16 days. […] In the aspect of daily ingestion, no difference was observed among these mice groups."}, "[2]": {"assay": "Organ weight and relative organ weight of OVA-sensitized mice", "experimental": "as §1\nAfter 16 days of feeding, the absolute weight of heart of OVA-BGP treated mice was less than the OVA-oil treated mice. […] There was no difference between the OVA-CLN group and control group. […] The absolute weight and relative weight of lung of PBS-oil mice group were lower than sensitized mice groups."}, "[3]": {"tested_on": "OVA-sensitized mice", "assay": "Airway hyperresponsiveness (Penh, methacholine challenge, whole-body plethysmograph)", "conditions": "Mch challenge 12.5 mg/ml or higher; after 13 days feeding; FIG. 2", "experimental": "Inbred female BALB/c mice (4 weeks old) were purchased from the Laboratory Animal Center, National Taiwan University and housed in a room with constant temperature of 23±2° C. The animal room was kept on a 12-h light and 12-h dark cycle. The mice were housed and kept on free diet and water to acclimatize before feeding the experimental diet. Diet ingestions are recorded every 3˜4 days, and mice body weight were recorded every week. When mice were in 8 week old, the mice were sensitized and challenged to induce allergic reaction at week 8, 10 and 12 by an intraperitonal injection (i.p.) of antigen containing ovalbumin antigen and adjuvant (Imject® Alum). […] Change of mice airway resistance was measured after 13 days of feeding, and mice were sacrificed on day 16. […]\nAfter an inhaled antigen challenge, airway resistance of the mice were tested the following day using Buxco system (Biosystem XA, Buxco Electronics Inc. Sharon, Conn., USA), in which the differential pressure transducer (Buxco) and preamplifier (MAX II, Buxco) were used to collect change information of mice respiratory and to calculate lung Penh value (Penh, enhanced pause). […] After excess aerosol was evacuated, an average Penh value per minute was recorded. […] The same challenge process was performed at each concentration, and an average Penh value per minute was recorded after 3 mins after each challenge. […]"}, "[4]": {"tested_on": "OVA-sensitized mice", "assay": "Cytokine, eotaxin and PGE2 level in BALF (ELISA)", "conditions": "day 16; mean ± SD", "experimental": "as §1\nAfter mice were sacrificed, fur and skin in the mice neck were incised and muscle surrounding the trachea was tear open to expose the trachea. A small hole was made on the trachea near the head with scissors to intubate tracheal tubing. After intubation, their lungs and airways were lavaged with […] of sterile PBS. Two ml of bronchoalveolar lavage fluid (BALF) was centrifuged at 1500 rpm for 7 mins at 4° C. The supernatant (BALF) was collected and stored at −80° C. for cytokine concentration determination. The cell pellet was washed with HBSS buffer twice and re-suspended in 10% FBS/RPMI medium. Total leukocytes were counted with a hemocytometer using trypan blue dye exclusion method. After the cell concentration was adjusted to 5×10^5 cell/ml, aliquots of 100 μl total cells were centrifuged with cytospin at 500 rpm for 2 mins and then stained with Liu A for 30 seconds. After excess stain was washed off and air dried, the cells were stained with Liu B for 5 seconds. Slides were air-dried and sealed with Arabic gum. […] Two hundreds of leukocytes were counted on each slide, which includes four different cells, eosinophil, neutrophil, lymphocyte and monocyte.\nBD Pharmingen System was provided as an example. Cytokine concentration was determined by ABC (avidin-biotin conjugated system) ELISA method. Primary antobiody was added to the 96-microwell plate wells and incubated at 4° C. overnight. After incubation, plates were washed four times with PBST buffer. To block non-specific binding, block buffer were added to each well and the plates were incubated at room temperature for 1 h. After incubation, plates were washed five times with ELISA wash buffer. Appropriately diluted samples or standard solution were then added to the 96-microwell plate wells and the plates were incubated at room temperature for 2˜3 h. After incubation, plates were washed with buffer six times then secondary antibody for detection was added to each well. Plates were incubated for another 1 h. After incubation, plates were washed seven times with ELISA wash buffer. Streptavidin-HRP (horseradish peroxidase) was added to each well and the reaction was allowed to react for 30 mins. After reaction, the plates were washed with ELISA buffer eight times and then HRP-substrate solution was added to the 96-microwell plate wells. […]"}, "[5]": {"tested_on": "OVA-sensitized mice", "assay": "Leukocyte numbers in BALF", "conditions": "FIG. 3A-3B", "experimental": "Inbred female BALB/c mice (4 weeks old) were purchased from the Laboratory Animal Center, National Taiwan University and housed in a room with constant temperature of 23±2° C. The animal room was kept on a 12-h light and 12-h dark cycle. The mice were housed and kept on free diet and water to acclimatize before feeding the experimental diet. Diet ingestions are recorded every 3˜4 days, and mice body weight were recorded every week. When mice were in 8 week old, the mice were sensitized and challenged to induce allergic reaction at week 8, 10 and 12 by an intraperitonal injection (i.p.) of antigen containing ovalbumin antigen and adjuvant (Imject® Alum). Blood samples were collected on two days before injection and on two weeks after last injection for analysis of OVA-specific antibodies. […] Change of mice airway resistance was measured after 13 days of feeding, and mice were sacrificed on day 16.\nAfter mice were sacrificed, fur and skin in the mice neck were incised and muscle surrounding the trachea was tear open to expose the trachea. […] Total leukocytes were counted with a hemocytometer using trypan blue dye exclusion method. […] Two hundreds of leukocytes were counted on each slide, which includes four different cells, eosinophil, neutrophil, lymphocyte and monocyte."}, "[6]": {"tested_on": "splenocytes of OVA-sensitized mice", "assay": "Cytokine secretion by OVA-specific stimulated splenocytes ex vivo", "conditions": "mean ± SD", "experimental": "as §1\nMice were sacrificed and their spleens were aseptically removed and suspended in 3 cm incubation dish containing 3 ml TCM/RPMI solution. Spleen tissue was minced with rear end of syringe and the upper layer cell suspension was collected and placed in 15 ml centrifuge tube. Another 3 ml HBSS buffer was added to wash the dish and residual cells were collected. Cell suspensions were centrifuged at 1500 rpm for 10 mins Supernatant was discard and the precipitated cells were re-suspend in ACK lysing buffer. After 1 minute, HBSS buffer was added to the suspension and then centrifuged at 1500 rpm for 10 mins Cell pellet was washed with HBSS buffer for 3 times. 2 ml of TCM/RPMI medium was added to re-suspend the cells. Cell number was counted and adjusted to 1×10^7 cell/ml. 500 μl of the cell suspension was added to 48 well plates. […] After 48 hours incubation, supernatants were collected and stored at −80° C.\nBD Pharmingen System was provided as an example. Cytokine concentration was determined by ABC (avidin-biotin conjugated system) ELISA method. Primary antobiody was added to the 96-microwell plate wells and incubated at 4° C. overnight. After incubation, plates were washed four times with PBST buffer. To block non-specific binding, block buffer were added to each well and the plates were incubated at room temperature for 1 h. After incubation, plates were washed five times with ELISA wash buffer. Appropriately diluted samples or standard solution were then added to the 96-microwell plate wells and the plates were incubated at room temperature for 2˜3 h. After incubation, plates were washed with buffer six times then secondary antibody for detection was added to each well. Plates were incubated for another 1 h. After incubation, plates were washed seven times with ELISA wash buffer. […] The plates were measured the absorbance at 405 nm by ELISA reader."}, "[7]": {"conditions": "after 16 days feeding, mean ± SD"}}}
{"smiles": "CCCC/C=C/C=C/C=C\\CCCCCCCC(=O)O", "note": "[OVA-CLN, Conjugated linolenic acid]", "values": [{"measurement": "Initial Body weight", "setting": "[1]; 14 week-old, before experimental feeding, mean ± SD", "value": "22.7 ± 1.30", "unit": "g"}, {"measurement": "Final Body Weight", "setting": "[1]; 16 week-old, after 16 days feeding, mean ± SD", "value": "22.0 ± 1.52", "unit": "g"}, {"measurement": "Effect on mice growth (body weight)", "setting": "[1]; 16 days feeding, in words", "value": "did not affect mice growth"}, {"measurement": "Feed Intake", "setting": "[1]; mean ± SD", "value": "2.99 ± 0.31", "unit": "g/day"}, {"measurement": "Heart absolute weight", "setting": "[2]; [7]", "value": "0.12 ± 0.02", "unit": "g"}, {"measurement": "Heart relative weight", "setting": "[2]; [7]", "value": "0.56 ± 0.06", "unit": "%"}, {"measurement": "Kidney absolute weight", "setting": "[2]; [7]", "value": "0.29 ± 0.01", "unit": "g"}, {"measurement": "Kidney relative weight", "setting": "[2]; [7]", "value": "1.30 ± 0.05", "unit": "%"}, {"measurement": "Liver absolute weight", "setting": "[2]; [7]", "value": "1.28 ± 0.15", "unit": "g"}, {"measurement": "Liver relative weight", "setting": "[2]; [7]", "value": "5.80 ± 0.38", "unit": "%"}, {"measurement": "Lung absolute weight", "setting": "[2]; [7]", "value": "0.48 ± 0.08", "unit": "g"}, {"measurement": "Lung relative weight", "setting": "[2]; [7]", "value": "2.21 ± 0.46", "unit": "%"}, {"measurement": "Spleen absolute weight", "setting": "[2]; [7]", "value": "0.080 ± 0.026", "unit": "g"}, {"measurement": "Spleen relative weight", "setting": "[2]; [7]", "value": "0.37 ± 0.12", "unit": "%"}, {"measurement": "Airway hyperresponsiveness (Penh) vs OVA-oil group", "setting": "[3]", "value": "alleviation of AHR"}, {"measurement": "Eotaxin in BALF", "setting": "[4]", "value": "27.3 ± 8.5", "unit": "pg/mL"}, {"measurement": "IL-1β in BALF", "setting": "[4]", "value": "21.0 ± 9.5", "unit": "pg/mL"}, {"measurement": "IL-4 in BALF", "setting": "[4]", "value": "39.1 ± 33.9", "unit": "pg/mL"}, {"measurement": "IL-5 in BALF", "setting": "[4]", "value": "326 ± 183", "unit": "pg/mL"}, {"measurement": "IL-6 in BALF", "setting": "[4]", "value": "12.2 ± 27.8", "unit": "pg/mL"}, {"measurement": "IL-13 in BALF", "setting": "[4]", "value": "254 ± 75", "unit": "pg/mL"}, {"measurement": "PGE2 in BALF", "setting": "[4]", "value": "17.2 ± 16.1", "unit": "ng/mL"}, {"measurement": "TNF-α in BALF", "setting": "[4]", "value": "64.5 ± 29.3", "unit": "pg/mL"}, {"measurement": "Eosinophils in BALF vs OVA-oil group", "setting": "[5]", "value": "less eosinophils infiltration"}]}
{"smiles": "C[C@]12C=CC(=O)C=C1CC[C@@H]1[C@@H]2[C@@H](O)C[C@@]2(C)[C@H]1CC[C@]2(O)C(=O)CO", "note": "[OVA-Pred, prednisolone]", "values": [{"measurement": "Relative weight of liver vs OVA-oil group", "setting": "[2]; in words", "value": "significant lower"}, {"measurement": "Airway hyperresponsiveness (Penh) vs OVA-oil group", "setting": "[3]", "value": "alleviation of AHR"}, {"measurement": "Total leukocyte number in BALF vs OVA-oil group", "setting": "[5]", "value": "less than those in the OVA-oil group"}, {"measurement": "IFN-γ secretion by splenocytes", "setting": "[6]", "value": "110 ± 50", "unit": "pg/mL"}, {"measurement": "IL-2 secretion by splenocytes", "setting": "[6]", "value": "66.9 ± 20.9", "unit": "pg/mL"}, {"measurement": "IL-4 secretion by splenocytes", "setting": "[6]", "value": "33.4 ± 14.5", "unit": "pg/mL"}, {"measurement": "IL-5 secretion by splenocytes", "setting": "[6]", "value": "2.12 ± 1.85", "unit": "ng/mL"}, {"measurement": "IL-13 secretion by splenocytes", "setting": "[6]", "value": "322 ± 118", "unit": "pg/mL"}]}
